Experimental findings from patent publication US20230233736A1, “ANTIMICROBIAL FORMULATIONS COMPRISING SILICONE” (AMICOAT AS, priority 2020, published 2023) are described below.

The subject of one data set is E. coli. Description: Antimicrobial assay, Table 5. In kind it is cell-based.
In a further data set the test system is C. albicans. Description: Antimicrobial assay, Table 5. The format is cell-based.
Another data set deals with P. aeruginosa. Description: Antimicrobial assay, Table 5. In kind it is cell-based.
Data set [1] concerns Methicillin resistant Staphylococcus epidermidis (MRSE) strain ATCC 27626. Particulars: for MRSE: Table 5, strain ATCC 27626; for MIC: MRSE ATCC 27626.
In the next data set the test system is S. pyogenes. Briefly: Antimicrobial assay, Table 5. In kind it is cell-based.
The test system of data set [2] is Methicillin resistant Staphylococcus aureus (MRSA) strain ATCC 33591. Particulars: for MRSA: Table 5, strain ATCC 33591; for MIC: MRSA ATCC 33591.
Data set [3] has as its system Staphylococcus aureus, strain ATCC 25923. The note with it: for S. aureus: Table 5, strain ATCC 25923; for MIC: S. aureus ATCC 25923.
For a further data set, the system named is trypsin. Description: in vitro. In kind it is in vitro ADME. Particulars: pH 8.6. The procedure:
Each peptide was dissolved in a 0.1 M NH4HCO3 buffer (pH 6.5) to yield a final peptide concentration of 1 mg/ml. A trypsin solution was prepared by dissolving 1 mg of trypsin in 50 ml 0.1 M NH4HCO3 buffer (pH 8.2). For the stability determination, 250 μl freshly made trypsin solution and 250 μl peptide solution were incubated in 2 ml of 0.1 M NH4HCO3 buffer (pH 8.6) at 37° C. on a rocking table. Aliquots of 0.5 ml were sampled at different time intervals, diluted with 0.5 ml water:acetonitrile (60:40 v/v) containing 1% TFA and analysed by RP-HPLC as described above. Samples without trypsin addition taken at 0 h and after 20 h at 37° C. were used as negative controls. Integration of the peak area at 254 nm for samples taken during the first 5 hours of the assay was used to generate the […].

In the next data set the test system is Clostridium difficile. Briefly: MIC microbroth dilution (CLSI). The note with it: antibiotic-susceptible clinical isolate. In kind it is cell-based. Set-up: unit not given beside the values. On the technique in general: Broth dilution looks for growth in wells or tubes with falling amounts of substance.
A further data set concerns Microsporum canis. Briefly: MIC microbroth dilution (CLSI). In kind it is cell-based. Particulars: G.R. Micro collection.
The test system of the next data set is Enterococcus gallinarum. Description: MIC microbroth dilution (CLSI). The format is cell-based. The note with it: vancomycin-resistant (VanC) clinical isolate. The source says: (§1) Cation-adjusted Mueller-Hinton broth (Oxoid Ltd., Basingstoke, UK and Trek Diagnostic Systems Ltd., East Grinstead, UK) (supplemented with 5% laked horse blood for Streptococcus spp., Corynebacterium jeikeium and Listeria monocytogenes) was used for aerobic bacteria, with an initial inoculum of approximately 10^5 colony-forming units (CFU)/m L.

The next data set deals with Shigella sp. Description: MIC microbroth dilution (CLSI). In kind it is cell-based. Particulars: antibiotic-susceptible clinical isolate.
Description: as §1

The test system of the next data set is Salmonella sp. Description: MIC microbroth dilution (CLSI). The format is cell-based.
Description: as §1

Data set [4] has as its system Stenotrophomonas maltophilia. Briefly: MIC microbroth dilution (CLSI). In kind it is cell-based. Particulars: antibiotic-susceptible clinical isolate.
Description: as §1

For a further data set, the system named is Listeria monocytogenes. Briefly: MIC microbroth dilution (CLSI). The format is cell-based. The note with it: antibiotic-susceptible clinical isolate.
Description: as §1

Data set [5] has as its system Staphylococcus saprophyticus. Briefly: MIC microbroth dilution (CLSI). In kind it is cell-based. Particulars: antibiotic susceptible clinical isolate.
Description: as §1

The next data set relates to Acinetobacter baumanii. Description: MIC microbroth dilution (CLSI). The format is cell-based. On the set-up: unit not given beside the values. Particulars: antibiotic-susceptible clinical isolate.
Description: as §1

In data set [6] the test system is Trichophyton mentagrophytes. Description: MIC microbroth dilution (CLSI). In kind it is cell-based. Particulars: G.R. Micro collection.
A further data set has as its system Eggerthella lenta. Description: MIC microbroth dilution (CLSI). In kind it is cell-based. On the set-up: unit not given beside the values. Particulars: ATCC 43055; SBB.
The next data set relates to Bacteroides fragilis. Description: MIC microbroth dilution (CLSI). The format is cell-based. Set-up: unit not given beside the values. Particulars: ATCC 25285; SBB.
The subject of the next data set is Aspergillus niger. Description: MIC microbroth dilution (CLSI). The format is cell-based. Particulars: G.R. Micro collection.
A further data set deals with Cryptococcus neoformans. Description: MIC microbroth dilution (CLSI). The format is cell-based. Particulars: G.R. Micro collection.
The subject of data set [7] is Trichophyton interdigitale. Briefly: MIC microbroth dilution (CLSI). In kind it is cell-based. Particulars: G.R. Micro collection.
The next data set deals with Streptococcus pyogenes. The format is cell-based. Particulars: Macrolide (M-type) resistance clinical isolate.
Description: as §1

A further data set relates to Candida tropicalis. Description: MIC microbroth dilution (CLSI). Particulars: ATCC750 - reference strain. The format is cell-based.

Structures are written as SMILES. In brackets after ≈: the same amount, converted by molar mass. Where a SMILES comes first, the peptide text is derived from it. The star is where a group is joined. NHPhenethyl = c1ccc(CCN*)cc1

On to `CCCCCCCCCCCCCCCCNC(=O)[C@H](CCCNC(=N)N)NC(=O)[C@H](Cc1c(C(C)(C)C)[nH]c2c(C(C)(C)C)cc(C(C)(C)C)cc12)NC(=O)[C@@H](N)CCCNC(=N)N` [Compound 11], for which the E. coli in the data set with E. coli was greater than 100 mg/L. The C. albicans with C. albicans is on record as greater than 100 mg/L. Besides, the P. aeruginosa in the data set on P. aeruginosa is reported as greater than 100 mg/L. The same compound yielded an MRSE in data set [1] of 4 mg/L. Further, in the data set with S. pyogenes, the S. pyogenes is reported as 6 mg/L. In addition, the MRSA in [2] turned out to be 4 mg/L. This compound showed a S. aureus in data set [3] of 5 mg/L.

As for `CC(C)CNC(=O)[C@H](CCCNC(=N)N)NC(=O)[C@H](Cc1c(C(C)(C)C)[nH]c2c(C(C)(C)C)cc(C(C)(C)C)cc12)NC(=O)[C@@H](N)CCCNC(=N)N` [Compound 12], in the data set with C. albicans, the C. albicans is reported as 10 mg/L. The MRSE in data set [1] stood at 2 mg/L. In the data set with S. pyogenes, this compound returned a S. pyogenes of 2 mg/L. Also, the MRSA in data set [2] was 3 mg/L. Besides, in data set [3], the S. aureus is given as less than 2 mg/L.

Regarding `N=C(N)NCCC[C@H](NC(=O)C(Cc1ccc(-c2ccc(-c3ccccc3)cc2)cc1)NC(=O)[C@@H](N)CCCNC(=N)N)C(=O)NCCc1ccccc1` (stereo partly shown) [Compound 5], the half-life at 0.1 mg/ml in the data set on trypsin was greater than 24 h. Also, the MIC was determined as 3 µM (≈ 2.2 µg/mL) in data set [1], 3 µM (≈ 2.2 µg/mL) in [2] and 5 µM (≈ 3.66 µg/mL) in data set [3].

As for `CCCCNC(=O)[C@H](CCCNC(=N)N)NC(=O)[C@H](Cc1c(C(C)(C)C)[nH]c2c(C(C)(C)C)cc(C(C)(C)C)cc12)NC(=O)[C@@H](N)CCCNC(=N)N` [Compound 9], the C. albicans in the data set with C. albicans is 10 mg/L. This compound also had an MRSE in data set [1] of less than 2 mg/L. In the data set with S. pyogenes, this compound had a S. pyogenes of 2 mg/L. The compound also yielded an MRSA in data set [2] of 3 mg/L. The compound further displayed a S. aureus in data set [3] of 2 mg/L.

As to `N=C(N)NCCC[C@H](NC(=O)[C@H](Cc1c[nH]c2ccccc12)NC(=O)[C@@H](N)CCCNC(=N)N)C(=O)NCCc1ccccc1` [Compound 6, reference compound] (H-Arg-Trp-Arg-NHPhenethyl), the MIC in [1] is 81 µM (≈ 50.2 µg/mL); in data set [2], 97 µM (≈ 60.1 µg/mL); in data set [3], 145 µM (≈ 89.9 µg/mL).

`CC(C)(C)c1cc(C(C)(C)C)c2[nH]c(C(C)(C)C)c(C[C@H](NC(=O)[C@@H](N)CCCNC(=N)N)C(=O)N[C@@H](CCCNC(=N)N)C(=O)NC3CCCC3)c2c1` [Compound 14] came in with a C. albicans in the data set on C. albicans of 10 mg/L. Further, the MRSE in [1] was less than 2 mg/L. This compound also registered a S. pyogenes in the data set with S. pyogenes of 2 mg/L. Also, the MRSA in data set [2] is greater than 15 mg/L. In [3], this compound returned a S. aureus of less than 2 mg/L.

`N=C(N)NCCCC(N)C(=O)NC(Cc1ccc(-c2ccc3ccccc3c2)cc1)C(=O)NC(CCCNC(=N)N)C(=O)NCCc1ccccc1` (stereo not shown) [Compound 1]: the MIC against Clostridium difficile worked out at 32; in the data set on Microsporum canis, 8; against Enterococcus gallinarum, 4; against Shigella sp, 32; in the data set on Salmonella sp (antibiotic-susceptible clinical isolate), 16; in the data set with Salmonella sp (multi-drug resistant clinical isolate), 16. Further, the MIC in [4] is 64; against Listeria monocytogenes, 32; in [5], 1; in the data set with Acinetobacter baumanii, 64; in data set [6], 16; in [1] it was less than 3 µM. For the same compound, the MIC against Eggerthella lenta was 16; in [2], less than 3 µM; against Bacteroides fragilis it was 64; in the data set with Aspergillus niger it was 4; against Cryptococcus neoformans it was 4; in data set [3] it was 4 µM (≈ 2.83 µg/mL). Also, the MIC in data set [7] was 8; in the data set with Streptococcus pyogenes, 32; against Candida tropicalis, 2.

With `CCCNC(=O)[C@H](CCCNC(=N)N)NC(=O)[C@H](Cc1c(C(C)(C)C)[nH]c2c(C(C)(C)C)cc(C(C)(C)C)cc12)NC(=O)[C@@H](N)CCCNC(=N)N` [Compound 10], the C. albicans with C. albicans was 10 mg/L. In addition, the MRSE in [1] was less than 2 mg/L. Also, in the data set on S. pyogenes, the S. pyogenes was determined as 2 mg/L. Moreover, the MRSA in [2] is 3 mg/L. Further, in data set [3], the S. aureus was found to be 2 mg/L.

For the compound `N=C(N)NCCC[C@H](NC(=O)C(Cc1ccc(-c2cccc3ccccc23)cc1)NC(=O)[C@@H](N)CCCNC(=N)N)C(=O)NCCc1ccccc1` (stereo partly shown) [Compound 3], the half-life at 0.1 mg/ml in the data set with trypsin is 20 h.

`CC(C)(C)c1cc(C(C)(C)C)c2[nH]c(C(C)(C)C)c(C[C@H](NC(=O)[C@@H](N)CCCNC(=N)N)C(=O)N[C@@H](CCCNC(=N)N)C(=O)NC3CCCCC3)c2c1` [Compound 13]: the C. albicans in the data set on C. albicans is reported as 10 mg/L. In data set [1], the MRSE is on record as 2 mg/L. In the data set with S. pyogenes, this compound had a S. pyogenes of less than 2 mg/L. In [2], this compound showed an MRSA of 2 mg/L. The compound further gave a S. aureus in [3] of less than 2 mg/L.

As to `CC(C)(C)c1cc(C(C)(C)C)c2[nH]c(C(C)(C)C)c(C[C@H](NC(=O)[C@@H](N)CCCCN)C(=O)N[C@@H](CCCCN)C(=O)NCCc3ccccc3)c2c1` [Compound 4], the half-life at 0.1 mg/ml in the data set with trypsin is greater than 24 h. Besides, the values for the MIC in [1] and in [2] were less than 2 µM and 3 µM (≈ 2.2 µg/mL), respectively.

In general, half-life refers to the time in which the quantity being followed falls by half.
